Results reported in US20210024507A1, “Compounds” (Step Pharma S.A.S., priority 2018, published 2021).
pIC50: −log10 of the molar value.

Columns and labels:
human CTPS1 [1] = biological target: T1, human CTPS1 (Homo sapiens, UniProt P17812); test: Human CTPS1 enzyme inhibition (ADP-Glo Max assay); format: biochemical; conditions: human full length CTPS1, 25° C., read-out: CTPS1 (Human CTPS1 Enzyme Inhibition, IC50 grouped by potency range)
T1 construct: purchased Proteros biostructures GmbH
T1 sequence (P17812 1-591): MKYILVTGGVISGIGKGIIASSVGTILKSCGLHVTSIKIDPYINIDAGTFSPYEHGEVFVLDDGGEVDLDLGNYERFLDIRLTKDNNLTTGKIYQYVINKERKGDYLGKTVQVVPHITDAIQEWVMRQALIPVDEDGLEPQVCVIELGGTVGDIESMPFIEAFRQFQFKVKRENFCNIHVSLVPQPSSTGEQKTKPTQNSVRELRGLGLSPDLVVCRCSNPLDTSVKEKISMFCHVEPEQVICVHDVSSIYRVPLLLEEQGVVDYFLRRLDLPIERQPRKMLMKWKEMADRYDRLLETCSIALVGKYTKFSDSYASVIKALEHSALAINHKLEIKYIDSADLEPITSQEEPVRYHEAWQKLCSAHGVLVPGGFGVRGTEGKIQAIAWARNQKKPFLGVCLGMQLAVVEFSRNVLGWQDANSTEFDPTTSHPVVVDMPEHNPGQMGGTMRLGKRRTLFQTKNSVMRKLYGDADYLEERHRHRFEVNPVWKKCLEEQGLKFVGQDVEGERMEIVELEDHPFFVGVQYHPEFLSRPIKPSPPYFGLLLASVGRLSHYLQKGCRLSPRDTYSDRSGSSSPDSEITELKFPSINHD
Method in brief: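 Full-length C-terminal FLAG-His-tagged CTPS1, preincubated 10 min at 25 °C with compound in 50mM Tris pH 8.0, 10mM MgCl2, 0.01% Tween-20, 2mM L-cysteine. Started with ATP 0.31mM, GTP 0.034mM, UTP 0.48mM, L-glutamine 0.186mM in substrate mix, run within linear phase at 25 °C. ADP via ADP-Glo Max luminescence; IC50 from % inhibition curve.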

human CTPS1 [2] = test: RapidFire/MS-based enzyme selectivity assay, human CTPS1; format: biochemical; conditions: calculated from the CTPS1 and CTPS2 IC50 values
Procedure: The enzyme inhibitory activities against each target isoform of interest may be determined for the compounds of the invention using an optimised RapidFire high-throughput mass spectrometry (RF/MS) assay format. RF/MS assays for both human CTPS1 and CTPS2 may be performed in assay buffer consisting of 50mM HEPES (Merck), 20mM MgCl2, 5mM KCI, 1mM DTT, 0.01% Tween-20, pH to 8.0 accordingly. Human full-length active C-terminal FLAG-His-tag CTPS1 (UniProtKB - P17812, CTPS[1-591]-[…]) may be obtained from Proteros biostructures GmbH. Human full length active C-terminal FLAG-His-Avi tagged CTPS2 (UniProtKB-Q9NRF8, CTPS2 [1-586]- […]) may be obtained from Harker Bio.
Human CTPS (1 or 2) protein may be prepared in lx assay buffer to the final working protein concentration required for the reaction. A 2uL volume per well of 2× CTPS (1 or 2) protein may be mixed with 40nL of compound using acoustic (ECHO) delivery and incubated for 10 minutes at 25° C. Each isoform enzymatic reaction may be subsequently initiated by addition of 2uL per well of a 2× substrate mix in assay buffer. For hCTPS1: ATP (0.3mM), UTP (0.2mM), GTP (0.07mM) and L-glutamine (0.1mM). For hCTPS2: ATP (0.1mM), UTP (0.04mM), GTP (0.03mM) and L-glutamine (0.1mM). Each mixture may be incubated for an appropriate amount of time per isoform within the determined linear phase of the reaction at 25° C. A 60uL volume of stop solution (1% formic acid with 0.5uM ^13C9-^15N3-CTP in H2O) may be added and the plate immediately heat-sealed and centrifuged for 10 minutes at 4,000rpm. Following centrifugation, plates may be loaded onto the Agilent RapidFire microfluidic solid phase extraction system coupled to an AP14000 triple quadrupole mass spectrometer (RF/MS) for analysis.
In all cases, the enzyme converts UTP to CTP. Highly specific and sensitive multiple reaction monitoring (MRM) MS methods may be optimised for the detection of the enzymatic reaction product, CTP, and the stable isotope labelled product standard ^13C9-^15N3-CTP. Readout for data analysis may be calculated as the ratio between the peak area of the product CTP and the internal standard ^13C9-^15N3-CTP. For data reporting, the following equation may be used:
[formula] (R=ratio/readout, P=product signal area, IS=internal standard signal area)
For each screening plate, the means of the negative (DMSO) and positive control values were used for the calculation of the respective assay window (S/B) and Z′ values. The median of the respective control values was used for calculation of percent inhibition according to the following equation:
[formula] (I=Inhibition, Rneg=median of negative control readout values, Rpos=median of positive control readout values, Rsample=sample readout value)
Percentage inhibition was then plotted against compound concentration, and the 50% inhibitory concentration (IC50) was determined from the resultant concentration-response curve.
Fold selectivity between CTPS1 and CTPS2 was subsequently calculated according to the following equation: […]

Row | SMILES | pIC50 (human CTPS1 [1]) | Selectivity (fold selectivity between CTPS1 and CTPS2) (human CTPS1 [2])
1 | CCC(C(=O)Nc1ccc(-c2cncc(OC(C)C)n2)cn1)c1ccnc(NS(=O)(=O)C2CC2)n1 (stereo not drawn) [P89, 2-(2-(cyclopropanesulfonamido)pyrimidin-4-yl)-N-(5-(6-isopropoxypyrazin-2-yl)pyridin-2-yl)butanamide] | ≥ 7.00 | +++ (>60 fold (+++))
2 | CCC(C(=O)Nc1ccc(-c2cncc(OC)n2)cc1F)c1ccnc(NS(=O)(=O)C2CC2)n1 (stereo not drawn) [P95, 2-(2-(cyclopropanesulfonamido)pyrimidin-4-yl)-N-(2-fluoro-4-(6-methoxypyrazin-2-yl)phenyl)butanamide] | ≥ 7.00 | + (2-30 fold (+))
3 | CCOc1cncc(-c2ccc(NC(=O)C(CC)c3ccnc(NS(=O)(=O)C4CC4)n3)c(F)c2)n1 (stereo not drawn) [P96, 2-(2-(cyclopropanesulfonamido)pyrimidin-4-yl)-N-(4-(6-ethoxypyrazin-2-yl)-2-fluorophenyl)butanamide] | ≥ 7.00 | + (2-30 fold (+))
4 | CCC(C(=O)Nc1ccc(-c2cncc(OCC(F)(F)F)n2)cc1F)c1ccnc(NS(=O)(=O)C2CC2)n1 (stereo not drawn) [P98, 2-(2-(cyclopropanesulfonamido)pyrimidin-4-yl)-N-(2-fluoro-4-(6-(2,2,2-trifluoroethoxy)pyrazin-2-yl)phenyl)butanamide] | ≥ 7.00 | +++ (>60 fold (+++))
5 | CCC(C(=O)Nc1ccc(-c2cncc(C(F)(F)F)n2)cc1)c1ccnc(NS(=O)(=O)C2CC2)n1 (stereo not drawn) [P103, 2-(2-(cyclopropanesulfonamido)pyrimidin-4-yl)-N-(4-(6-(trifluoromethyl)pyrazin-2-yl)phenyl)butanamide] | 6.00 to 7.00 | + (2-30 fold (+))
6 | CCOc1cncc(-c2ccc(NC(=O)C(CC)c3ccnc(NS(=O)(=O)C4CC4)n3)cc2)n1 (stereo not drawn) [P105, 2-(2-(cyclopropanesulfonamido)pyrimidin-4-yl)-N-(4-(6-ethoxypyrazin-2-yl)phenyl)butanamide] | ≥ 7.00 | ++ (>30-60 fold (++))
7 | CCC(C(=O)Nc1ccc(-c2cncc(OCC(F)(F)F)n2)cc1)c1ccnc(NS(=O)(=O)C2CC2)n1 (stereo not drawn) [P108, 2-(2-(cyclopropanesulfonamido)pyrimidin-4-yl)-N-(4-(6-(2,2,2-trifluoroethoxy)pyrazin-2-yl)phenyl)butanamide] | ≥ 7.00 | +++ (>60 fold (+++))
8 | CCOc1cncc(-c2ccc(NC(=O)C(CCOC)c3ccnc(NS(=O)(=O)C4CC4)n3)cc2)n1 (stereo not drawn) [P110, 2-(2-(cyclopropanesulfonamido)pyrimidin-4-yl)-N-(4-(6-ethoxypyrazin-2-yl)phenyl)-4-methoxybutanamide] | ≥ 7.00 | ++ (>30-60 fold (++))
9 | CCOc1cncc(-c2ccc(NC(=O)C(CC)c3cccc(NS(=O)(=O)C4CC4)n3)nc2)n1 (stereo not drawn) [P188, 2-(6-(cyclopropanesulfonamido)pyridin-2-yl)-N-(5-(6-ethoxypyrazin-2-yl)pyridin-2-yl)butanamide] | ≥ 7.00 | ++ (>30-60 fold (++))
10 | CCOc1cncc(-c2ccc(NC(=O)C(CC)c3cccc(NS(=O)(=O)C4CC4)n3)cc2)n1 (stereo not drawn) [P191, 2-(6-(cyclopropanesulfonamido)pyridin-2-yl)-N-(4-(6-ethoxypyrazin-2-yl)phenyl)butanamide] | 6.00 to 7.00 | ++ (>30-60 fold (++))
11 | CCOc1cncc(-c2ccc(NC(=O)C(C)(CCOC)c3cncc(NS(=O)(=O)C4CC4)n3)nc2)n1 (stereo not drawn) [P198, 2-(6-(cyclopropanesulfonamido)pyrazin-2-yl)-N-(5-(6-ethoxypyrazin-2-yl)pyridin-2-yl)-4-methoxy-2-methylbutanamide] | ≥ 7.00 | +++ (>60 fold (+++))
12 | CCOc1cncc(-c2ccc(NC(=O)C(F)(CC)c3cncc(NS(=O)(=O)C4CC4)n3)nc2)n1 (stereo not drawn) [P200, 2-(6-(cyclopropanesulfonamido)pyrazin-2-yl)-N-(5-(6-ethoxypyrazin-2-yl)pyridin-2-yl)-2-fluorobutanamide] | ≥ 7.00 | ++ (>30-60 fold (++))
13 | CCOc1cncc(-c2ccc(NC(=O)C(CC)c3cncc(NS(=O)(=O)C4CC4)n3)nc2)n1 (stereo not drawn) [P201, 2-(6-(cyclopropanesulfonamido)pyrazin-2-yl)-N-(5-(6-ethoxypyrazin-2-yl)pyridin-2-yl)butanamide] | ≥ 7.00 | +++ (>60 fold (+++))
14 | CCOc1cncc(-c2ccc(NC(=O)C(CC)c3cncc(NS(=O)(=O)C4CC4)n3)cc2)n1 (stereo not drawn) [P202, 2-(6-(cyclopropanesulfonamido)pyrazin-2-yl)-N-(4-(6-ethoxypyrazin-2-yl)phenyl)butanamide] | ≥ 7.00 | +++ (>60 fold (+++))
15 | CCOc1cncc(-c2ccc(C(=O)NC(CC)c3ccnc(NS(=O)(=O)C4CC4)n3)c(F)c2)n1 (stereo not drawn) [P216, N-(1-(2-(cyclopropanesulfonamido)pyrimidin-4-yl)propyl)-4-(6-ethoxypyrazin-2-yl)-2-fluorobenzamide] | ≥ 7.00 | +++ (>60 fold (+++))
